Source: patent US9309263B2, “Fused multi-cyclic sulfone compounds as inhibitors of beta-secretase and methods of use thereof” (AMGEN INC., priority 2013, dated 2016)
Where two headings read alike, the source gives them in different places.

How the values were obtained:
[1] = target: Beta Secretase enzyme (BACE) (Homo sapiens, UniProt P56817); test: In vitro enzymatic BACE FRET assay; format: biochemical; conditions: average IC50; read-out: BACE1 FRET assay IC50
Experimental: In Vitro Enzymatic BACE FRET (Fluorescence Resonance Energy Transfer) Assay (Enzyme Assay Data in the Example Table I)
The assay buffer used in this screen is 0.05 M acetate, pH 4.2, 10% DMSO final, 100 uM genapol (which is a nonionic detergent, below its Critical Micelle Concentration). The Beta Secretase enzyme (0.2 nM) is pre-incubated for one hour with inhibitors, typically in about 1 uL of DMSO according to a serial dilution, are added thereto. This assay is effectively started by the addition of FRET substrate (50 nM) and the combination is incubated for one hour. The FRET assay is terminated with by addition of Tris buffer, which raises the pH to neutrality, and the fluorescence is determined. The FRET substrate is a peptide with commercially available fluorophore and quencher, on opposite sides of the BACE cleavage site. Proteolytic cleavage of the FRET substrate releases quenching of fluorescence (excitation 488 nm and […]).

Cathepsin D (Cat D) = Cathepsin D (Cat D) (Homo sapiens, UniProt P07339); test: In vitro enzymatic Cathepsin D (Cat D) FRET assay; format: biochemical
Cathepsin D (Cat D), sequence (P07339 65-412, species assumed): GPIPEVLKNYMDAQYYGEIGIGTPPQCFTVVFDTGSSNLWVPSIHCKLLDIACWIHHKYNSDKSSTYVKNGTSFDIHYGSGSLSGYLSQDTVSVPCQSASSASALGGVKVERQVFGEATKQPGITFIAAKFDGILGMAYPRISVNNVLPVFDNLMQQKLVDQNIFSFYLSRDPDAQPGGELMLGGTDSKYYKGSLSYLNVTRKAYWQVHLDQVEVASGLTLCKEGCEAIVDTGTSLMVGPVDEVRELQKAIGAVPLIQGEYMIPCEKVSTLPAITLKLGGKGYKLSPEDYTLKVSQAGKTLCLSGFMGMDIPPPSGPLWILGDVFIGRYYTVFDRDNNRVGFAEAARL
Experimental: In Vitro Enzymatic Cathepsin D (Cat D) FRET (Fluorescence Resonance Energy Transfer) Assay
Recombinant Cat D was expressed in CHO cells. The assay buffer for CathepsinD is 0.05 M citrate pH 3.5, 10% DMSO final, 5 mM CHAPS. The Cat D enzyme (9 nM) is pre-incubated for one hour with inhibitors, typically in about 1 uL of DMSO according to a serial dilution, is added thereto. The assays are effectively started by the addition of different FRET substrates (20 nM for Cat D) and the combination is incubated for one hour. The FRET assay is terminated with by addition of Tris buffer, which raises the pH to neutrality, and the fluorescence is determined. The FRET substrate is a peptide with commercially available fluorophore and quencher, on opposite sides of the BACE cleavage site. The Cat D substrate peptide sequence is based on sequence #1 of Table 1 from Gulnik et al. FEBS Letters v413 p 379-384 1997. Proteolytic cleavage of the FRET substrate releases quenching of fluorescence (Cat D excitation 500 nm and emission 580 nm). […]
See, for instance, examples 8, 12, 15, 16, 18, 21-23, 24, 25, 26, 29, 30, 32, 41-42, 45, 53, 54, 57, 63, 67-69, 72-74, 76, 79-81, 83 & 84 (to point to just a few; referring to data in Table 2). […] See, for instance, examples 8, 12, 15, 18, 21-23, 25, 29, 30, 32, 41-42, 45, 54, 57, 67-68, 72-73, 76, 80-81, 84, 86, 91-92 & 100 (to point out those from compound examples 1-100; and with reference to data in Table 2).

[2] = tested on: Aβ 40 in conditioned medium of cells stably expressing Amyloid Precursor Protein (APP); test: In vitro BACE cell-based assay (Aβ 40 sandwich ELISA); conditions: Homo sapiens, HEK293; HEK cell; average IC50
Experimental: In Vitro BACE Cell-Based Assay
The cell-based assay measures inhibition or reduction of […] in conditioned medium of test compound treated cells expressing amyloid precursor protein.
Cells stably expressing Amyloid Precursor Protein (APP) were plated at a density of 40K cells/well in 96 well plates (Costar). The cells were cultivated for 24 hours at 37° C. and 5% CO2 in DMEM supplemented with 10% FBS. The test compounds were then added to cells in 10-point dose response concentrations with the starting concentration being either 100 μM or 10 μM. The compounds were diluted from stock solutions in DMSO and the final DMSO concentration of the test compounds on cells was 0.1%. After 24 h of incubation with the test compounds the supernatant conditioned media was collected and the Aβ 40 levels were determined using a sandwich ELISA. The IC50 of the compound was calculated from the percent of control or percent inhibition of Aβ 40 as a function of the concentration of the test compound.
The sandwich ELISA to detect Aβ 40 was performed in 96 well microtiter plates, which were pre-treated with goat anti-rabbit IgG (Pierce). The capture and detecting antibody pair that were used to detect Aβ 40 from cell supernatants were affinity purified pAb40 (Biosource) and biotinylated 6E10 (Signet Labs Inc.), respectively. The optimal concentration for the pAb40 antibody was 3 μg/ml in Superblock/TBS (Pierce) that was supplemented with 0.05% Tween 20 (Sigma). Optimal concentration for the detection antibody 6E10-biotinylated was 0.5 μg/ml in Superblock/TBS (Pierce) that had been supplemented with 2% normal goat serum and 2% normal mouse serum.
Cellular supernatants were incubated with the capture antibody for 3 h at 4° C., followed by 3 wash steps in TBS-tween (0.05%). The detecting antibody incubation was for 2 h at 4° C., again followed by the wash steps as described previously. The final readout of the ELISA is Time-Resolved Fluorescence (counts per minute) using Delfia reagents Streptavidin-Europium and Enhancement solutions (Perkin Elmer) and the Victor 2 multilabel counter (Perkin Elmer).

[3] = text summary referring to data in Table 2

Beta Secretase enzyme (BACE), sequence (P56817 46-501): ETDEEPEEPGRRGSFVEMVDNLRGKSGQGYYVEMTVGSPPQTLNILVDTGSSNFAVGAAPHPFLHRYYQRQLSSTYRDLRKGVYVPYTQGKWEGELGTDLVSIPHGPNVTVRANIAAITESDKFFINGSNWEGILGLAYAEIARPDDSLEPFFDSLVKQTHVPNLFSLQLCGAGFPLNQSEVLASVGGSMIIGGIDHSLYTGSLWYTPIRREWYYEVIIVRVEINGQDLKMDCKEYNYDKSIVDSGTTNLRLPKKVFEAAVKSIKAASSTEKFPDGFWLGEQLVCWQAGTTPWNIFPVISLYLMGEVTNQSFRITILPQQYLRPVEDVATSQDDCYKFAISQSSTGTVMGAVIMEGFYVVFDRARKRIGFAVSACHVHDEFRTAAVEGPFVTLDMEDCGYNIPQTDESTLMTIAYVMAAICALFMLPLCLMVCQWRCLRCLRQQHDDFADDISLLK

| SMILES | IC50 [1] | IC50 (Cathepsin D (Cat D); read-out: CatD IC50) | IC50 [2] | IC50 (Cathepsin D (Cat D); [3]) |
| --- | --- | --- | --- | --- |
| Cc1cc(Cl)cnc1C(=O)Nc1ccc2c(c1)[C@@]1(C)N=C(N)C(C)(C)S(=O)(=O)[C@]1(C)CCO2 [Example 27, N-((4aR,11bR)-2-amino-3,3,4a,11b-tetramethyl-4,4-dioxido-4a,5,6,11b-tetrahydro-3H-[1]benzoxepino[4,5-b][1,4]thiazin-10-yl)-5-chloro-3-methyl-2-pyridinecarboxamide] | 0.15 µM | 553 µM | 0.264 µM | – |
| Cc1c(C(=O)Nc2ccc3c(c2)[C@@]2(C)N=C(N)C(C)(C)S(=O)(=O)[C@@H]2CCO3)nc2ccc(Cl)cn12 [Example 28, N-((4aR,11bR)-2-amino-3,3,11b-trimethyl-4,4-dioxido-4a,5,6,11b-tetrahydro-3H-[1]benzoxepino[4,5-b][1,4]thiazin-10-yl)-6-chloro-3-methylimidazo[1,2-a]pyridine-2-carboxamide] | 0.028 µM | > 400 µM | 0.008 µM | – |
| CCc1ccc(C(=O)Nc2ccc3c(c2)[C@@]2(C)N=C(N)C(C)(C)S(=O)(=O)[C@@H]2CCO3)nc1 [Example 29, N-((4aR,11bR)-2-amino-3,3,11b-trimethyl-4,4-dioxido-4a,5,6,11b-tetrahydro-3H-[1]benzoxepino[4,5-b][1,4]thiazin-10-yl)-5-ethyl-2-pyridinecarboxamide] | 0.038 µM | 1370 µM | 0.01 µM | > 1200 µM |
| CC1(C)C(N)=N[C@]2(C)c3cc(NC(=O)c4cc5ccccc5cn4)ccc3OCC[C@H]2S1(=O)=O [Example 30, N-((4aR,11bR)-2-amino-3,3,11b-trimethyl-4,4-dioxido-4a,5,6,11b-tetrahydro-3H-[1]benzoxepino[4,5-b][1,4]thiazin-10-yl)-3-isoquinolinecarboxamide] | 0.084 µM | 1080 µM | 0.058 µM | > 1200 µM |
| CCc1cc(Cl)cnc1C(=O)Nc1ccc2c(c1)[C@@]1(C)N=C(N)C(C)(C)S(=O)(=O)[C@@H]1CCO2 [Example 31, N-((4aR,11bR)-2-amino-3,3,11b-trimethyl-4,4-dioxido-4a,5,6,11b-tetrahydro-3H-benzo[6,7]oxepino[4,5-b][1,4]thiazin-10-yl)-5-chloro-3-ethylpicolinamide] | 0.015 µM | 226 µM | 0.016 µM | – |
| COc1cnc(C(=O)Nc2ccc3c(c2)[C@@]2(C)N=C(N)C(C)(C)S(=O)(=O)[C@H]2CCC3)c(C)c1 [Example 32, N-((4aS,11bR)-2-amino-3,3,11b-trimethyl-4,4-dioxido-3,4a,5,6,7,11b-hexahydrobenzo[3,4]cyclohepta[1,2-b][1,4]thiazin-10-yl)-5-methoxy-3-methyl-2-pyridinecarboxamide] | 0.073 µM | 1340 µM | 0.021 µM | > 1200 µM |
| Cc1cc(C(F)F)cnc1C(=O)Nc1ccc2c(c1)[C@@]1(C)N=C(N)C(C)(C)S(=O)(=O)[C@H]1CCC2 [Example 35, N-((4aS,11bR)-2-amino-3,3,11b-trimethyl-4,4-dioxido-3,4a,5,6,7,11b-hexahydrobenzo[3,4]cyclohepta[1,2-b][1,4]thiazin-10-yl)-5-(difluoromethyl)-3-methyl-2-pyridinecarboxamide] | 0.049 µM | > 400 µM | 0.023 µM | – |
| Cc1cc(OC(F)F)cnc1C(=O)Nc1ccc2c(c1)[C@@]1(C)N=C(N)C(C)(C)S(=O)(=O)[C@H]1CCC2 [Example 39, N-((4aS,11bR)-2-amino-3,3,11b-trimethyl-4,4-dioxido-3,4a,5,6,7,11b-hexahydrobenzo[3,4]cyclohepta[1,2-b][1,4]thiazin-10-yl)-5-(difluoromethoxy)-3-methyl-2-pyridinecarboxamide] | 0.142 µM | > 400 µM | 0.022 µM | – |
| Cc1cc(C(F)F)cnc1C(=O)Nc1ccc2c(c1)[C@@]1(C)N=C(N)C(C)(C)S(=O)(=O)[C@@H]1CCC2 [Example 40, N-((4aR,11bR)-2-amino-3,3,11b-trimethyl-4,4-dioxido-3,4a,5,6,7,11b-hexahydrobenzo[3,4]cyclohepta[1,2-b][1,4]thiazin-10-yl)-5-(difluoromethyl)-3-methyl-2-pyridinecarboxamide] | 0.035 µM | > 400 µM | 0.015 µM | – |

Other lines, results leading:

| IC50 [1] | IC50 (Cathepsin D (Cat D); read-out: CatD IC50) | IC50 [2] | IC50 (Cathepsin D (Cat D); [3]) | SMILES |
| --- | --- | --- | --- | --- |
| 0.029 µM | 286 µM | 0.097 µM | – | CC1(C)C(N)=N[C@]2(C)c3cc(Nc4nccc5cc(C#N)cnc45)ccc3CCC[C@@H]2S1(=O)=O [Example 33, 8-(((4aS,11bR)-2-amino-3,3,11b-trimethyl-4,4-dioxido-3,4a,5,6,7,11b-hexahydrobenzo[3,4]cyclohepta[1,2-b][1,4]thiazin-10-yl)amino)-1,7-naphthyridine-3-carbonitrile] |
| 0.071 µM | 409 µM | 0.464 µM | – | CC1(C)C(N)=N[C@]2(C)c3cc(Nc4nccc5cc(Cl)cnc45)ccc3CCC[C@@H]2S1(=O)=O [Example 34, (4aS,11bR)-N^~10^~-(3-chloro-1,7-naphthyridin-8-yl)-3,3,11b-trimethyl-3,4a,5,6,7,11b-hexahydrobenzo[3,4]cyclohepta[1,2-b][1,4]thiazine-2,10-diamine 4,4-dioxide] |
| 0.062 µM | > 400 µM | 0.29 µM | – | CC1(C)C(N)=N[C@]2(C)c3cc(NC(=O)c4ncc(Cl)cc4Cl)ccc3CCC[C@@H]2S1(=O)=O [Example 36, N-((4aS,11bR)-2-amino-3,3,11b-trimethyl-4,4-dioxido-3,4a,5,6,7,11b-hexahydrobenzo[3,4]cyclohepta[1,2-b][1,4]thiazin-10-yl)-3,5-dichloro-2-pyridinecarboxamide] |
| 0.036 µM | > 400 µM | 0.016 µM | – | Cc1cc(C#N)cnc1C(=O)Nc1ccc2c(c1)[C@@]1(C)N=C(N)C(C)(C)S(=O)(=O)[C@H]1CCC2 [Example 37, N-((4aS,11bR)-2-amino-3,3,11b-trimethyl-4,4-dioxido-3,4a,5,6,7,11b-hexahydrobenzo[3,4]cyclohepta[1,2-b][1,4]thiazin-10-yl)-5-cyano-3-methyl-2-pyridinecarboxamide] |
| 0.099 µM | > 400 µM | 0.15 µM | – | CC1(C)C(N)=N[C@]2(C)c3cc(NC(=O)c4ccc(Cl)cn4)ccc3CCC[C@@H]2S1(=O)=O [Example 38, N-((4aS,11bR)-2-amino-3,3,11b-trimethyl-4,4-dioxido-3,4a,5,6,7,11b-hexahydrobenzo[3,4]cyclohepta[1,2-b][1,4]thiazin-10-yl)-5-chloro-2-pyridinecarboxamide] |
